From patent US20050136488A1, “Cellular membrane protein assay” (priority 2003, published 2005)
Where two headings read alike, the source gives them in different places. One block for each substance: values may come before it.

Assays:
[1] = tested on: GLUT4-PL in CHO/pGLUT4-PL.1 cells; conditions: 30 min, serum-containing media, thrombin 20 units/ml
Method: In this experiment, CHO/pGLUT4-PL.1 cells were treated for 30 min with 0, 0.1, 1, and 10 μM insulin in serum-containing media. The liquid above the cells was then replaced with buffer containing thrombin at 20 units/ml and processed for the intact-cell EFC assay.
1) Seed cells into individual wells at a density of 10,000 cells in 100 μl media. For transient transfectants, replace the media above cells with fresh media one day post-transfection. Perform the intact-cell EFC assay two days after seeding the cells. To assay GLUT4-PL at the cell surface under basal growth conditions (serum-containing media, no exogenous insulin), proceed to step 3.
2) For insulin induction, add 20 μl/well of insulin diluted in media to 6× system concentration (e.g., add 20 μl of 6 μM insulin to the 100 μl liquid above cells to achieve an insulin system concentration of 1 μM). Return plate to incubator for 30 min. Starving cells of serum 2-to-4 hours prior to adding insulin diluted in serum-free media may achieve a larger insulin-response window.
3) Remove the media above the cells by aspiration. Add 50 μl/well thrombin solution (20 units/ml thrombin; 1×PBS; 0.1 mg/ml BSA; 10 mM each KF and NaAzide (NaN3)). Return plate to incubator for 1 hr. […]
5) Add 30 μl/well CL Substrate. […] Readings are taken at periodic intervals from 15 min to 1 hr on a luminescence plate reader.

[2] = biological target: T1, GLUT4-PL in CHO/pGLUT4-PL.1 cells (Homo sapiens, UniProt P14672, INS67[…]); assay: intact-cell EFC assay, thrombin release of ProLabel from GLUT4-PL; type: cell-based; conditions: thrombin 60 units/ml, intact CHO cells expressing pGLUT4-PL.1
T1 construct: expressed in transfected cells; host or cells: CHO cells transfected with plasmid pGLUT4-PL.1
T1 sequence (P14672 with tags, fused parts or gaps INS67[withheld]): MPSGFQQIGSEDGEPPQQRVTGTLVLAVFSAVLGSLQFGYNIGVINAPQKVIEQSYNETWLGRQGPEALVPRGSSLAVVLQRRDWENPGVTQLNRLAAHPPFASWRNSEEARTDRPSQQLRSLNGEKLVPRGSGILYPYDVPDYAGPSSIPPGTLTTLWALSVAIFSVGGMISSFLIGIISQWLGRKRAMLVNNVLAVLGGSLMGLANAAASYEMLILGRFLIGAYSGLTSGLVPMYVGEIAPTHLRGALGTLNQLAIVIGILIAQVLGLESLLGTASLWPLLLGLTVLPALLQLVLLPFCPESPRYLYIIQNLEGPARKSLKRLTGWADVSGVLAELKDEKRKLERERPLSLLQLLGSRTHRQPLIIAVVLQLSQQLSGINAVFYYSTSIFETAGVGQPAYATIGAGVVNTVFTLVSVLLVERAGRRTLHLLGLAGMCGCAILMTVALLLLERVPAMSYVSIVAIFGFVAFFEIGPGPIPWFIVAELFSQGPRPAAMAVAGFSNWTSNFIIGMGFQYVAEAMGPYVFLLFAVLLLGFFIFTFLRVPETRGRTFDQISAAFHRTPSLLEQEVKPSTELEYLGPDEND
Method: Detection of GLUT4-PL after protease cleavage. Central to the concept of using EFC to monitor GLUT4-PL at the cell surface is the proteolytic release of the internal ProLabel tag from the protein's first exofacial loop. Initial studies were therefore directed at developing and characterizing an intact-cell EFC protocol using thrombin protease. All of the experiments described below were carried out in 96-well assay plates. To test whether thrombin treatment could enhance EFC signal, intact cells expressing pGLUT4-PL.1 were treated with 50 μl buffer alone or buffer containing thrombin at increasing concentrations. Eighty μl of a solution containing EA and the protease inhibitor AEBSF (7.5 mM final concentration) were added subsequently, followed by 30 μl of chemiluminescent substrate. Thrombin treatment led to a dose-dependent enhancement of EFC activity, with 60 units/ml enhancing EFC activity 4.4-fold over untreated cells (FIG. 4). To test whether thrombin proteolytic activity per se, and not a non-specific component of the thrombin formulation was responsible for the increased EFC signal, a control experiment was performed by inactivating thrombin with AEBSF prior to its addition to cells.

HeLa/IκB-PL cells = assay: cell integrity control, intact-cell EFC assay on cells expressing cytoplasmic reporter IκB-PL; type: cell-based; conditions: series of increasing thrombin concentrations
Method: CHO/pGLUT4-PL.1 and HeLa/IκB-PL cells were assayed in parallel with a series of increasing thrombin concentrations (FIG. 6). As had been observed above, thrombin treatment of CHO/pGLUT4-PL.1 cells led to a dose-dependent increase in EFC activity.

[3] = biological target: GLUT4-ProLabel fusion protein encoded by plasmid pGLUT4-PL.1 (human); assay: cell-based or functional assay
Sequence of GLUT4-ProLabel fusion protein encoded by plasmid pGLUT4-PL.1 (human) (chain, as listed by the source limits assumed): as the sequence (P14672 with tags, fused parts or gaps INS67[withheld]) above

Substance: insulin
increase in EFC activity relative to the no-insulin control ([1]; 1 μM insulin): 15% | increase in EFC activity relative to the no-insulin control ([1]; 10 μM insulin): 40%

Substance: thrombin
enhancement of EFC activity over untreated cells [2]: 4.4 fold | dose-dependent increase in EFC activity (cell integrity) (HeLa/IκB-PL cells): no such increase was observed

EFC activity (enzyme fragment complementation, chemiluminescence) of intact CHO/pGLUT4-PL.1 cells [3]: 4.4 fold
Substance: thrombin protease (enzyme)
